Several values for one entry are separate records, joined by “and”; a condition that tells them apart may be missing. Equal entries are not always repeated. Inconclusive results and toxic doses are left out. Rule for the calls: active = survival T/C of 150% or more; inactive = T/C below 125% in these data.
Test system: P388 leukemia ip, CD2F1 mice, survival T/C
Experiment: NCI In Vivo Anticancer Drug Screen. Data for tumor model P388 Leukemia (intraperitoneal) in CD2F1 (CDF1) mice
Details: endpoint: median survival time, higher = longer survival
Method in brief: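 Mice carrying the transplanted tumor received test compound or vehicle. Survival was recorded in each group, and the value is the treated-group measurement divided by that of the vehicle-treated control group.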

[1] = dose: 200.0 mg/kg/injection, schedule: Q01DX009 (ip), vehicle: saline with Tween-80
[2] = dose: 100.0 mg/kg/injection, schedule: Q04DX002 (ip), vehicle: saline
[3] = dose: 200.0 mg/kg/injection, schedule: Q04DX002 (ip), vehicle: saline
[4] = dose: 25.0 mg/kg/injection, schedule: Q01DX009 (ip), vehicle: saline with Tween-80
[5] = dose: 50.0 mg/kg/injection, schedule: Q01DX009 (ip), vehicle: saline with Tween-80
[6] = dose: 100.0 mg/kg/injection, schedule: Q01DX009 (ip), vehicle: saline with Tween-80
[7] = dose: 50.0 mg/kg/injection, schedule: Q01DX009 (ip), vehicle: Klucel (hydroxypropylcellulose) (HPC)
[8] = dose: 100.0 mg/kg/injection, schedule: Q01DX009 (ip), vehicle: Klucel (hydroxypropylcellulose) (HPC)
[9] = dose: 50.0 mg/kg/injection, schedule: Q01DX005 (ip), vehicle: Klucel (hydroxypropylcellulose) (HPC)
[10] = dose: 100.0 mg/kg/injection, schedule: Q01DX005 (ip), vehicle: Klucel (hydroxypropylcellulose) (HPC)
[11] = dose: 200.0 mg/kg/injection, schedule: Q01DX005 (ip), vehicle: Klucel (hydroxypropylcellulose) (HPC)
[12] = dose: 100.0 mg/kg/injection, schedule: Q04DX002 (ip), vehicle: saline with Tween-80
[13] = dose: 200.0 mg/kg/injection, schedule: Q04DX002 (ip), vehicle: saline with Tween-80
[14] = dose: 400.0 mg/kg/injection, schedule: Q04DX002 (ip), vehicle: saline with Tween-80
[15] = dose: 60.0 mg/kg/injection, schedule: Q01DX005 (ip), vehicle: Klucel (hydroxypropylcellulose) (HPC)
[16] = dose: 120.0 mg/kg/injection, schedule: Q01DX005 (ip), vehicle: Klucel (hydroxypropylcellulose) (HPC)
[17] = dose: 240.0 mg/kg/injection, schedule: Q01DX005 (ip), vehicle: Klucel (hydroxypropylcellulose) (HPC)
[18] = dose: 12.5 mg/kg/injection, schedule: Q01DX009 (ip), vehicle: saline
[19] = dose: 25.0 mg/kg/injection, schedule: Q01DX009 (ip), vehicle: saline
[20] = dose: 50.0 mg/kg/injection, schedule: Q01DX009 (ip), vehicle: saline
[21] = dose: 100.0 mg/kg/injection, schedule: Q01DX009 (ip), vehicle: saline

Measured: T/C

C[C@@H]1C[C@H]2CC[C@H](O2)[C@H](C)C(=O)O[C@@H](C)C[C@@H]2CC[C@@H](O2)[C@@H](C)C(=O)O[C@H](C)C[C@H]2CC[C@H](O2)[C@H](C)C(=O)O[C@@H](C)C[C@@H]2CC[C@@H](O2)[C@@H](C)C(=O)O1
inactive: dose: 132.0 mg/kg/injection, schedule: Q01DX009 (ip), vehicle: saline with Tween-80 100 % of control | [1] 104 % of control | dose: 300.0 mg/kg/injection, schedule: Q01DX009 (ip), vehicle: saline with Tween-80 104 % of control

C1=NCCNc2nc3ccccc3cc2C=NCCNc2nc3ccccc3cc21
inactive: dose: 50.0 mg/kg/injection, schedule: Q04DX002 (ip), vehicle: saline 100 % of control | [2] 99 % of control | [3] 99 % of control

NN1C(=O)/C(=C\c2ccccc2)SC1=S
inactive: dose: 100.0 mg/kg/injection, schedule: Q04DX002 (ip), vehicle: Klucel (hydroxypropylcellulose) (HPC) 107 % of control | dose: 200.0 mg/kg/injection, schedule: Q04DX002 (ip), vehicle: Klucel (hydroxypropylcellulose) (HPC) 111 % of control | dose: 400.0 mg/kg/injection, schedule: Q04DX002 (ip), vehicle: Klucel (hydroxypropylcellulose) (HPC) 98 % of control

O=C(O)CC(=O)c1ccccc1
inactive: [4] 102 % of control | [5] 105 % of control | [1] 89 % of control

COc1ccc(NC(=O)CCC(=O)Oc2ccccc2)cc1
inactive: [6] 100 % of control | dose: 400.0 mg/kg/injection, schedule: Q01DX009 (ip), vehicle: saline with Tween-80 94 % of control

O=c1c2cc3ccccc3cc2c(=O)n2n1CC=CC2
inactive: [7] 97 % of control | [8] 90 % of control

Cc1ccc(/C=C/c2ccc([N+](=O)[O-])cc2)cc1
inactive: [9] 105 % of control and 97 % of control | [10] 90 % of control and 96 % of control | [11] 93 % of control | dose: 400.0 mg/kg/injection, schedule: Q01DX005 (ip), vehicle: Klucel (hydroxypropylcellulose) (HPC) 102 % of control and 103 % of control

CC(=O)/C(=C\c1ccc(C)cc1)C(=O)CCN(C)C
inactive: dose: 50.0 mg/kg/injection, schedule: Q01DX005 (ip), vehicle: saline 108 % of control | dose: 100.0 mg/kg/injection, schedule: Q01DX005 (ip), vehicle: saline 108 % of control | dose: 200.0 mg/kg/injection, schedule: Q01DX005 (ip), vehicle: saline 111 % of control

CCN(CC)OCC=C(C)CCC=C(C)C (mixture of isomers)
inactive: [12] 111 % of control | [13] 109 % of control | [14] 108 % of control

FC(F)(F)C1=C(C(F)(F)F)OP23(OCCC(CO2)O3)O1 (centres undefined)
inactive: dose: 50.0 mg/kg/injection, schedule: Q04DX003 (ip), vehicle: Klucel (hydroxypropylcellulose) (HPC) 105 % of control | dose: 100.0 mg/kg/injection, schedule: Q04DX003 (ip), vehicle: Klucel (hydroxypropylcellulose) (HPC) 108 % of control | dose: 200.0 mg/kg/injection, schedule: Q04DX003 (ip), vehicle: Klucel (hydroxypropylcellulose) (HPC) 99 % of control | dose: 400.0 mg/kg/injection, schedule: Q04DX003 (ip), vehicle: Klucel (hydroxypropylcellulose) (HPC) 103 % of control

CCCCCC[N+]1(CC)CCCC1
inactive: dose: 0.78 mg/kg/injection, schedule: Q01DX009 (ip), vehicle: saline 97 % of control | dose: 1.56 mg/kg/injection, schedule: Q01DX009 (ip), vehicle: saline 113 % of control | dose: 3.12 mg/kg/injection, schedule: Q01DX009 (ip), vehicle: saline 98 % of control and 100 % of control

CC(Cl)CN(CC(C)Cl)c1ccc(-c2ccccc2)cc1 (centres undefined)
inactive: [7] 105 % of control and 109 % of control | [8] 124 % of control

CN(C)C1=c2c(=O)n(C)c(=O)n(C)c2=NC2C=CC=CN12 (centres undefined)
inactive: [9] 100 % of control | [10] 96 % of control | [11] 86 % of control

OCC(CCc1c[nH]c2ccccc12)c1c[nH]c2ccccc12 (centres undefined)
inactive: [15] 90 % of control | [16] 90 % of control | [17] 93 % of control

COC1OCCC(n2c(C)cc3c(N)ncnc32)C1O (centres undefined)
inactive: [9] 101 % of control and 102 % of control | [15] 100 % of control | [10] 100 % of control and 103 % of control | [16] 103 % of control | [11] 93 % of control | [17] 96 % of control

Cc1cc(C)c(C#N)c(SC(C(=O)NC(C)(C)C)c2ccccc2)n1 (centres undefined)
inactive: [9] 88 % of control | [10] 87 % of control | [11] 87 % of control

N#CC1SC(C#N)C(c2ccc(Cl)cc2)OC1c1ccc(Cl)cc1 (centres undefined)
inactive: dose: 6.25 mg/kg/injection, schedule: Q01DX005 (ip), vehicle: saline with Tween-80 93 % of control | dose: 12.5 mg/kg/injection, schedule: Q01DX005 (ip), vehicle: saline with Tween-80 91 % of control | dose: 25.0 mg/kg/injection, schedule: Q01DX005 (ip), vehicle: saline with Tween-80 90 % of control | dose: 100.0 mg/kg/injection, schedule: Q01DX005 (ip), vehicle: saline with Tween-80 91 % of control | dose: 200.0 mg/kg/injection, schedule: Q01DX005 (ip), vehicle: saline with Tween-80 104 % of control

O=C(O)c1nc2ccccc2c(=O)[nH]1
inactive: [4] 95 % of control | [5] 96 % of control | [6] 94 % of control | [1] 93 % of control

COc1ccc(/C=N\N=C(/[O-])c2ccc(Cl)cc2)cc1.COc1ccc(/C=N\N=C(/[O-])c2ccc(Cl)cc2)cc1.[Mn+2].[OH3+].[OH3+]
inactive: dose: 50.0 mg/kg/injection, schedule: Q04DX002 (ip), vehicle: saline with Tween-80 102 % of control | [12] 102 % of control | [13] 104 % of control

CCCCCCCCCCCC[N+]1([O-])CCCCCC1
inactive: [18] 100 % of control | [19] 100 % of control | [20] 107 % of control and 94 % of control

Cc1nccc2nnc(C)n12
inactive: dose: 100.0 mg/kg/injection, schedule: Q04DX003 (ip), vehicle: saline 98 % of control | dose: 200.0 mg/kg/injection, schedule: Q04DX003 (ip), vehicle: saline 98 % of control | dose: 400.0 mg/kg/injection, schedule: Q04DX003 (ip), vehicle: saline 95 % of control

CCOC(=O)CCC1=C(C)c2cc3[nH]c(cc4[nH]c(cc5nc(cc1n2)C(CCC(=O)OCC)=C5C)c(C1CC1C(=O)OCC)c4C)c(C1CC1C(=O)OCC)c3C (centres undefined)
inactive: [9] 102 % of control | [10] 100 % of control | [11] 101 % of control

Fc1ccc(NC(=S)NC2CC2)c(F)c1
inactive: [5] 104 % of control | [6] 104 % of control

COC(=O)C(=O)c1c(C2CC2)[nH]c2[nH]n(-c3ccccc3)c(=O)c2c1=O
inactive: dose: 60.0 mg/kg/injection, schedule: Q01DX005 (ip), vehicle: saline with Tween-80 96 % of control | dose: 120.0 mg/kg/injection, schedule: Q01DX005 (ip), vehicle: saline with Tween-80 91 % of control

COC(=O)C1CCC[P+]1(C)C (centres undefined)
inactive: dose: 100.0 mg/kg/injection, schedule: Q01DX001 (ip), vehicle: saline 106 % of control | dose: 400.0 mg/kg/injection, schedule: Q01DX001 (ip), vehicle: saline 101 % of control

CCOC(CNN)OCC
inactive: [21] 106 % of control | dose: 200.0 mg/kg/injection, schedule: Q01DX009 (ip), vehicle: saline 91 % of control

O=C1OS(=O)(=O)c2cc3c(cc21)C1C(C2C3C3(Cl)C(Cl)=C(Cl)C2(Cl)C3(Cl)Cl)C2(Cl)C(Cl)=C(Cl)C1(Cl)C2(Cl)Cl (centres undefined)
inactive: [18] 97 % of control | [19] 100 % of control | [20] 100 % of control and 104 % of control | [21] 107 % of control

COC(=O)/C(=C\SC(C)=O)NC(C)=O
inactive: [12] 107 % of control | [13] 105 % of control | [14] 117 % of control

CCNC(=S)N=Nc1c(O)[nH]c2ccccc12
inactive: [18] 90 % of control | [19] 89 % of control | [20] 88 % of control and 89 % of control

O=[N+]([O-])c1ccc(F)c(Cl)c1
inactive: dose: 100.0 mg/kg/injection, schedule: Q04DX003 (ip), vehicle: other 100 % of control | dose: 200.0 mg/kg/injection, schedule: Q04DX003 (ip), vehicle: other 100 % of control

Cc1cc(Br)ccc1N=Nc1c(C)noc1C
inactive: [2] 104 % of control | [3] 104 % of control | dose: 400.0 mg/kg/injection, schedule: Q04DX002 (ip), vehicle: saline 101 % of control

Source: PubChem BioAssay AID330 (DTP/NCI, 2004)
